Values of other authors, collected in patent publication US20030064909A1, “Laundry detergent and/or fabric care compositions comprising a transferase” (The Procter & Gamble Company, priority 1998, published 2003).

SMILES | solubility in water
OCCOc1ccccc1 [2-phenoxyethanol] | about 2.67%
OCCc1ccccc1 [2-phenylethanol] | about 2%
O=[N+]([O-])C1(Br)COCOC1 [Bronidox L, 5-bromo-5-nitro-1,3-dioxane] | about 0.46%
O=[N+]([O-])C(Br)(CO)CO [Bronopol, 2-bromo-2-nitropropane-1,3-diol] | about 25%
CC1(C)C(=O)N(CO)C(=O)N1CO [DMDM hydantoin, 1,3-bis(hydroxymethyl)-5,5-dimethyl-2,4-imidazolidinedione] | more than 50%
ClC=CC[N+]12CN3CN(CN(C3)C1)C2.[Cl-] [Dowicil 200, 1-(3-Chlorallyl) -3,5,7-triaza-1-azoniaadamantane chloride] | freely soluble in water
OCc1ccccc1 [benzyl alcohol] | about 4%
[H]/N=C(\N/C(=N/[H])NCCCCCCNC(=N)NC(=N)Nc1ccc(Cl)cc1)Nc1ccc(Cl)cc1 [chlorhexidine diacetate, 1,1′-hexamethylene bis(5-(p-chlorophenyl)biguanide), reference compound] | about 1.8%
[H]/N=C(\N/C(=N/[H])NCCCCCCNC(=N)NC(=N)Nc1ccc(Cl)cc1)Nc1ccc(Cl)cc1 [chlorhexidine digluconate, 1,1′-hexamethylene bis(5-(p-chlorophenyl)biguanide), reference compound] | about 70%
CC(C)(O)C(Cl)(Cl)Cl [chlorobutanol, 1,1,1-Trichloro-2-methylpropan-2-ol, reference compound] | about 0.8%
[Na+].[O-][n+]1ccccc1[S-] [sodium pyrithione] | about 50%
